Values after ≈ are worked out from the molar mass of the structure shown. Like-named read-outs stand apart in the source and are kept apart here. One block for each compound: values may come before it.
What was measured:
[1] = tested on: Staphylococcus aureus ATCC 25923; assay: Broth microdilution, S. aureus ATCC 25923; type: cell-based; conditions: Sa 25923
Method: (§1) The antibacterial activity of the obtained thiosemicarbazides and hydrazide–hydrazones was determined by evaluating their ability to inhibit microbial growth in vitro using the broth microdilution method, according to the guidelines of the European Committee on Antimicrobial Susceptibility Testing (EUCAST). The method involved the preparation of microbial suspensions with a standardized density of 0.5 on the McFarland scale (equivalent to 1.5 × 10^8 colony-forming units/mL for bacteria and […] for fungi). A solution of the test substances was then prepared (initial concentration 1000 µg/mL, diluted in sterile Mueller-Hinton broth for bacteria or Mueller-Hinton with 2% glucose for fungi). The test was carried out in 96-well polystyrene flat-bottom plates (Medlab, Poland) with 100 µL of appropriate sterile microbiological medium in each well. The first wells were filled with 200 µL of the test substance, diluted to the initial concentration, and then double-decreasing dilutions were made under aseptic conditions using an automatic pipette. The final step was the addition of a 10-fold diluted microbial suspension of 2 µL. At the same time, the following controls were included: (a) medium control (100 µL of sterile medium without microorganisms added), (b) microbial viability control, (c) test substance control (dilutions without added micro-organisms), (d) positive control of the drug used in the clinic. The plates thus prepared were incubated for 18 ± 2 h at 35 ± 2 °C under conditions optimal for the growth of the test microorganisms. After incubation, the spectrophotometric absorbance at 570 nm in each well of the plate was read. The aim of this part of the study was to determine two parameters: the minimum inhibitory concentration (MIC) and the minimum bactericidal or fungicidal concentration (MBC/MFC) of the test compound. […] The MBC value was determined by adding 5 µL of the contents of each well of the plate to solid sterile MHA or MHA + 2%glc medium for bacteria and fungi, respectively. The area on the plate where 99.9% inhibition of microbial growth was observed indicated the lethal concentration. In addition, the quotient MBC(MFC)/MIC could be determined to assess the nature of the activity of the test substance. If MBC(MFC)/MIC was <4, the test substance was bactericidal/fungicidal, whereas if MBC(MFC)/MIC was ≥4, it was bacteriostatic/fungistatic. Amoxicillin (Glentham Life Sciences, USA) and nystatin (Glentham Life Sciences, USA) were used as the controls for this assay.
(§2) The test was performed either on bacteria, comprising: Gram-positive (Staphylococcus aureus ATCC 25923, Staphylococcus aureus ATCC 6538, Staphylococcus aureus ATCC 43300 methicillin-resistant MRSA, Staphylococcus epidermidis ATCC 12228, Micrococcus luteus ATCC 10240, Bacillus subtilis ATCC 6633, Bacillus cereus ATCC 10876) and Gram-negative (Escherichia coli ATCC 25922, Pseudomonas aeruginosa ATCC 27853, Proteus mirabilis ATCC 12453, Klebsiella pneumoniae ATCC 13883) or yeast (Candida parapsilosis ATCC 22019, Candida glabrata ATCC 90030, Candida krusei ATCC 14243, Candida glabrata ATCC 15126, Candida tropicalis ATCC 1369, Candida auris CDC B11903, Candida lusitaniae ATCC 3449) reference strains from the American Type Culture Collection (ATCC) or the Centers for Disease Control and Prevention (CDC).

[2] = tested on: Staphylococcus aureus ATCC 6538; assay: Broth microdilution, S. aureus ATCC 6538; type: cell-based; conditions: Sa 6538
Method: as §1, §2

[3] = tested on: Staphylococcus aureus ATCC 43300 methicillin-resistant MRSA; assay: Broth microdilution, S. aureus ATCC 43300 MRSA; type: cell-based; conditions: Sa 43300 MRSA
Method: as §1, §2

[4] = tested on: Staphylococcus epidermidis ATCC 12228; assay: Broth microdilution, S. epidermidis ATCC 12228; type: cell-based; conditions: Se 12228; for MBC/MIC Ratio: <4 bactericidal, ≥4 bacteriostatic
Method: as §1, §2

[5] = tested on: Micrococcus luteus ATCC 10240; assay: Broth microdilution, M. luteus ATCC 10240; type: cell-based; conditions: Ml 10240; for MBC/MIC Ratio: <4 bactericidal, ≥4 bacteriostatic
Method: as §1, §2

[6] = tested on: Bacillus subtilis ATCC 6633; assay: Broth microdilution, B. subtilis ATCC 6633; type: cell-based; conditions: Bs 6633; for MBC/MIC Ratio: <4 bactericidal, ≥4 bacteriostatic
Method: as §1, §2

[7] = tested on: Bacillus cereus ATCC 10876; assay: Broth microdilution, B. cereus ATCC 10876; type: cell-based; conditions: Bc 10876; for MBC/MIC Ratio: <4 bactericidal, ≥4 bacteriostatic
Method: as §1, §2

[8] = tested on: Candida parapsilosis ATCC 22019; assay: Broth microdilution, C. parapsilosis ATCC 22019; type: cell-based; conditions: Cp 22019
Method: as §1, §2

[9] = tested on: Candida glabrata ATCC 90030; assay: Broth microdilution, C. glabrata ATCC 90030; type: cell-based; conditions: Cg 90030
Method: as §1, §2

[10] = tested on: Candida krusei ATCC 14243; assay: Broth microdilution, C. krusei ATCC 14243; type: cell-based; conditions: Ck 14243
Method: as §1, §2

[11] = tested on: Candida glabrata ATCC 15126; assay: Broth microdilution, C. glabrata ATCC 15126; type: cell-based; conditions: Cg 15126
Method: as §1, §2

[12] = tested on: Candida tropicalis ATCC 1369; assay: Broth microdilution, C. tropicalis ATCC 1369; type: cell-based; conditions: Ct 1369
Method: as §1, §2

[13] = tested on: Candida auris CDC B11903; assay: Broth microdilution, C. auris CDC B11903; type: cell-based; conditions: Ca B11903
Method: as §1, §2

[14] = tested on: Candida lusitaniae ATCC 3449; assay: Broth microdilution, C. lusitaniae ATCC 3449; type: cell-based; conditions: Cl 3449
Method: as §1, §2

[15] = Staphylococcus aureus, ATCC25923, read-out: MBC
[16] = Staphylococcus aureus, ATCC25923, read-out: MIC
[17] = Staphylococcus aureus, ATCC6538, read-out: MBC
[18] = Staphylococcus aureus, ATCC6538, read-out: MIC
[19] = Staphylococcus aureus, read-out: MBC
[20] = Staphylococcus aureus, read-out: MIC
[21] = Staphylococcus epidermidis, ATCC12228, read-out: MBC
[22] = Staphylococcus epidermidis, ATCC12228, read-out: MIC
[23] = Micrococcus luteus, ATCC10240, read-out: MBC
[24] = Micrococcus luteus, ATCC10240, read-out: MIC
[25] = Bacillus subtilis, ATCC6633, read-out: MBC
[26] = Bacillus subtilis, ATCC6633, read-out: MIC
[27] = Bacillus cereus, ATCC10876, read-out: MBC
[28] = Bacillus cereus, ATCC10876, read-out: MIC
[29] = Lodderomyces parapsilosis, ATCC22019, read-out: MIC
[30] = Nakaseomyces glabratus, ATCC90030, read-out: MIC
[31] = Pichia kudriavzevii, ATCC14243, read-out: MIC
[32] = Nakaseomyces glabratus, ATCC15126, read-out: MIC
[33] = Candida tropicalis, ATCC1369, read-out: MIC
[34] = Candidozyma auris, CDCB11903, read-out: MIC
[35] = Clavispora lusitaniae, ATCC3449, read-out: MIC

Structure (SMILES): COc1ccc(NC(=S)NNC(=O)c2nc([N+](=O)[O-])cn2C)cc1 [Compound 11]
MBC [1]: >1000 µg/mL | MIC [1]: 500 µg/mL (≈ 1430 µM) | MBC [2]: >1000 µg/mL | MIC [2]: 1000 µg/mL (≈ 2850 µM) | MBC [3]: >1000 µg/mL | MIC [3]: 1000 µg/mL (≈ 2850 µM) | MBC [4]: >1000 µg/mL | MIC [4]: 500 µg/mL (≈ 1430 µM) | MBC [5]: 500 µg/mL (≈ 1430 µM) | MIC [5]: 250 µg/mL (≈ 714 µM) | MBC/MIC Ratio [5]: 2 | MBC [6]: 250 µg/mL (≈ 714 µM) | MIC [6]: 250 µg/mL (≈ 714 µM) | MBC/MIC Ratio [6]: 1 | MBC [7]: 250 µg/mL (≈ 714 µM) | MIC [7]: 250 µg/mL (≈ 714 µM) | MBC/MIC Ratio [7]: 1 | MFC [8]: >1000 µg/mL | MIC [8]: 250 µg/mL (≈ 714 µM) | MIC [9]: >1000 µg/mL | MIC [10]: >1000 µg/mL | MIC [11]: >1000 µg/mL | MFC [12]: >1000 µg/mL | MIC [12]: 250 µg/mL (≈ 714 µM) | MIC [13]: >1000 µg/mL | MIC [14]: >1000 µg/mL

Structure (SMILES): Cc1ccccc1NC(=S)NNC(=O)c1nc([N+](=O)[O-])cn1C [Compound 15]
MBC [1]: >1000 µg/mL | MIC [1]: 500 µg/mL (≈ 1500 µM) | MBC [2]: >1000 µg/mL | MIC [2]: 250 µg/mL (≈ 748 µM) | MBC [3]: >1000 µg/mL | MIC [3]: 250 µg/mL (≈ 748 µM) | MBC [4]: 500 µg/mL (≈ 1500 µM) | MIC [4]: 500 µg/mL (≈ 1500 µM) | MBC/MIC Ratio [4]: 1 | MBC [5]: 500 µg/mL (≈ 1500 µM) | MIC [5]: 500 µg/mL (≈ 1500 µM) | MBC/MIC Ratio [5]: 1 | MBC [6]: 1000 µg/mL (≈ 2990 µM) | MIC [6]: 1000 µg/mL (≈ 2990 µM) | MBC/MIC Ratio [6]: 1 | MBC [7]: 500 µg/mL (≈ 1500 µM) | MIC [7]: 500 µg/mL (≈ 1500 µM) | MBC/MIC Ratio [7]: 1 | MIC [8]: >1000 µg/mL | MIC [9]: >1000 µg/mL | MIC [10]: >1000 µg/mL | MIC [11]: >1000 µg/mL | MFC [12]: >1000 µg/mL | MIC [12]: 500 µg/mL (≈ 1500 µM) | MIC [13]: >1000 µg/mL | MIC [14]: >1000 µg/mL

Structure (SMILES): Cc1cccc(NC(=S)NNC(=O)c2nc([N+](=O)[O-])cn2C)c1 [Compound 16, 1-[(1-methyl-4-nitroimidazol-2-yl)carbonyl]-4-(3-methylphenyl)-thiosemicarbazide]
MBC [1, 15]: > 1000 µg/mL | MIC [1, 16]: 250 µg/mL (≈ 748 µM) | MBC [2, 17]: > 1000 µg/mL | MIC [2, 18]: 62.5 µg/mL (≈ 187 µM) | MBC [3, 19]: > 1000 µg/mL | MIC [3, 20]: 125 µg/mL (≈ 374 µM) | MBC/MIC Ratio [4]: 1 | MBC [4, 21]: 500 µg/mL (≈ 1500 µM) | MIC [4, 22]: 500 µg/mL (≈ 1500 µM) | MBC [5, 23]: > 1000 µg/mL | MIC [5, 24]: 500 µg/mL (≈ 1500 µM) | MBC [6, 25]: 500 µg/mL (≈ 1500 µM) | MIC [6, 26]: 500 µg/mL (≈ 1500 µM) | MBC/MIC Ratio [6]: 1 | MBC [7, 27]: > 1000 µg/mL | MIC [7, 28]: 250 µg/mL (≈ 748 µM) | MFC ([8]; Lodderomyces parapsilosis, ATCC22019, read-out: MFC): > 1000 µg/mL | MIC [8, 29]: 500 µg/mL (≈ 1500 µM) | MIC [9, 30]: > 1000 µg/mL | MIC [10, 31]: > 1000 µg/mL | MIC [11, 32]: > 1000 µg/mL | MIC [12, 33]: > 1000 µg/mL | MIC [13, 34]: > 1000 µg/mL | MIC [14, 35]: > 1000 µg/mL

Structure (SMILES): Cc1ccc(NC(=S)NNC(=O)c2nc([N+](=O)[O-])cn2C)cc1 [Compound 17, 1-[(1-methyl-4-nitroimidazol-2-yl)carbonyl]-4-(4-methylphenyl)thiosemicarbazide]
MBC [1, 15]: > 1000 µg/mL | MIC [1, 16]: 125 µg/mL (≈ 374 µM) | MBC/MIC Ratio ([2]; <4 bactericidal, ≥4 bacteriostatic): 1 | MBC [2, 17]: 125 µg/mL (≈ 374 µM) | MIC [2, 18]: 125 µg/mL (≈ 374 µM) | MBC [3, 19]: > 1000 µg/mL | MIC [3, 20]: 125 µg/mL (≈ 374 µM) | MBC [4, 21]: > 1000 µg/mL | MIC [4, 22]: 500 µg/mL (≈ 1500 µM) | MBC [5, 23]: > 1000 µg/mL | MIC [5, 24]: 500 µg/mL (≈ 1500 µM) | MBC [6, 25]: > 1000 µg/mL | MIC [6, 26]: 500 µg/mL (≈ 1500 µM) | MBC [7, 27]: > 1000 µg/mL | MIC [7, 28]: 62.5 µg/mL (≈ 187 µM) | MIC [8, 29]: > 1000 µg/mL | MIC [9, 30]: > 1000 µg/mL | MIC [10, 31]: > 1000 µg/mL | MIC [11, 32]: > 1000 µg/mL | MFC ([12]; Candida tropicalis, ATCC1369, read-out: MFC): > 1000 µg/mL | MIC [12, 33]: 250 µg/mL (≈ 748 µM) | MIC [13, 34]: > 1000 µg/mL | MIC [14, 35]: > 1000 µg/mL

Next, values leading:

melting point: 280 to 284 °C
Structure (SMILES): Cn1cc([N+](=O)[O-])nc1C(=O)NN=Cc1ccccc1 [Compound 19, 1-methyl-4-nitro-N’-(phenylmethylidene)-1H-imidazole-2-carbohydrazide]

melting point: 234 to 236 °C
Structure (SMILES): Cn1cc([N+](=O)[O-])nc1C(=O)NN=Cc1ccccc1Cl [Compound 20, N’-[(2-chlorophenyl)methylidene]-1-methyl-4-nitro-1H-imidazole-2-carbohydrazide]
